Where two headings read alike, the source gives them in different places.
Target: HIV-1LAI envelope gp120 (Human immunodeficiency virus type 1 group M subtype B, UniProt P03377)
Assay type: binding
Conditions: for Counts per 20′ Average-background: CCR5 18-mer scan, radiolabeled HIV-1LAI gp120
[1] = Panel E, 9-mers and 12-mers of CD4, empty control 571
[2] = Panel C, 15-mers and 18-mers of CD4, empty control 556
[3] = Panel A, 21-mers of CD4, empty control 515 and 617
[4] = human CD4 21-mer scan, empty control 2075
[5] = Panel D, 9-mers and 12-mers of CD4, empty control […]
[6] = Panel B, 15-mers and 18-mers of CD4, empty control 575
[7] = CXCR4 18-mer scan, background subtracted, empty control 0
[8] = CXCR4 18-mer scan, empty control 412
[9] = STRL33 18-mer scan, background subtracted, first of two count columns
[10] = STRL33 18-mer scan, background subtracted, second of two count columns

Sequence: VLAFQKASSIVY
- COUNTS of radiolabeled gp120 retained [1]: 548 counts

Sequence: VLAFQKASSIVYKKE
- COUNTS of radiolabeled gp120 retained [2]: 634 counts

Sequence: VLAFQKASSIVYKKEGEQ
- COUNTS of radiolabeled gp120 retained [2]: 549 counts

Sequence: VLAFQKASSIVYKKEGEQVEF
- COUNTS of radiolabeled gp120 retained [3]: 1793 counts
- number of radioactive decays (counts) counted [4]: 3566 counts

Sequence: VLGGVAGLLLFIGLGIFFCVR [human CD4 401-421]
- number of radioactive decays (counts) counted [4]: 3738 counts

Sequence: VLPTWSTPVQPMALIVLGGVA
- number of radioactive decays (counts) counted [4]: 2197 counts

Sequence: VLQNQKKVE
- COUNTS of radiolabeled gp120 retained [1]: 556 counts

Sequence: VLQNQKKVEFKI
- COUNTS of radiolabeled gp120 retained [1]: 503 counts

Sequence: VLQNQKKVEFKIDIV
- COUNTS of radiolabeled gp120 retained [2]: 605 counts

Sequence: VLQNQKKVEFKIDIVVLA
- COUNTS of radiolabeled gp120 retained [2]: 724 counts

Sequence: VMRATQLQKNLTCEVWGPTSP [human CD4 316-336]
- number of radioactive decays (counts) counted [4]: 2144 counts

Sequence: VMVICYSGILKTLLRCRN [CCR5 segment 209-]
- Counts per 20′ Average-background (background subtracted): −8 counts per 20′

Sequence: VQLLVFGLT
- COUNTS of radiolabeled gp120 retained [5]: 815 counts

Sequence: VQLLVFGLTANS
- COUNTS of radiolabeled gp120 retained [5]: 747 counts

Sequence: VQLLVFGLTANSDTH
- COUNTS of radiolabeled gp120 retained [6]: 1006 counts

Sequence: VQLLVFGLTANSDTHLLQ
- COUNTS of radiolabeled gp120 retained [6]: 673 counts

Sequence: VSEADDRYICDRFYPNDL [CXCR4 segment 177-194]
- radioactive counts recorded in twenty minutes [7]: 157 counts
- radioactive counts recorded in twenty minutes [8]: 569 counts

Sequence: VSKREKAVWVLNPEAGMWQCL [human CD4 351-371]
- number of radioactive decays (counts) counted [4]: 2034 counts

Sequence: VSSPIYDINYYTSEPCQK [CCR5 segment 5-22]
- Counts per 20′ Average-background (background subtracted): 383 counts per 20′

Sequence: VSVKRVTQDPKLQMGKKLPLH
- number of radioactive decays (counts) counted: 1848 counts

Sequence: VTETLGMTHCCINPIIYA [CCR5 segment 281-]
- Counts per 20′ Average-background (background subtracted): 15 counts per 20′

Sequence: VTQDPKLQMGKKLPLHLTLPQ [human CD4 266-286]
- number of radioactive decays (counts) counted [4]: 2075 counts

Sequence: VVFQFQHIMVGLILPGIV
- radioactive counts recorded in twenty minutes [7]: 589 counts
- radioactive counts recorded in twenty minutes [8]: 1001 counts

Sequence: VVLAFQKAS
- COUNTS of radiolabeled gp120 retained [1]: 600 counts

Sequence: VVLAFQKASSIV
- COUNTS of radiolabeled gp120 retained [1]: 567 counts

Sequence: VVLAFQKASSIVYKK
- COUNTS of radiolabeled gp120 retained [2]: 577 counts

Sequence: VVLAFQKASSIVYKKEGE
- COUNTS of radiolabeled gp120 retained [2]: 560 counts

Sequence: VVLAFQKASSIVYKKEGEQVE
- COUNTS of radiolabeled gp120 retained [3]: 772 counts

Sequence: VYKKEGEQV
- COUNTS of radiolabeled gp120 retained [1]: 490 counts

Sequence: VYKKEGEQVEFS
- COUNTS of radiolabeled gp120 retained [1]: 584 counts

Sequence: VYKKEGEQVEFSFPL
- COUNTS of radiolabeled gp120 retained [2]: 714 counts

Sequence: VYKKEGEQVEFSFPLAFT
- COUNTS of radiolabeled gp120 retained [2]: 4307 counts

Sequence: VYKKEGEQVEFSFPLAFTVEK [human CD4 211-231]
- COUNTS of radiolabeled gp120 retained [3]: 2429 counts
- number of radioactive decays (counts) counted [4]: 14740 counts

Sequence: WDQGNFPLIIKNLKI
- COUNTS of radiolabeled gp120 retained [6]: 534 counts

Sequence: WDQGNFPLIIKNLKIEDS
- COUNTS of radiolabeled gp120 retained [6]: 626 counts

Sequence: WGPTSPKLMLSLKLENKEAKV [human CD4 331-351]
- number of radioactive decays (counts) counted [4]: 2414 counts

Sequence: WIPALLLTIPDFIFANVS
- radioactive counts recorded in twenty minutes [7]: 182 counts
- radioactive counts recorded in twenty minutes [8]: 594 counts

Sequence: WITFDLKNKEVSVKRVTQDPK
- number of radioactive decays (counts) counted [4]: 2126 counts

Sequence: WTCTVLQNQKKVEFK
- COUNTS of radiolabeled gp120 retained [2]: 566 counts

Sequence: WTCTVLQNQKKVEFKIDI
- COUNTS of radiolabeled gp120 retained [2]: 588 counts

Sequence: WVVAVFASLPGIIFTRSQ [CCR5 segment 153-]
- Counts per 20′ Average-background (background subtracted): 87 counts per 20′

Sequence: YAAAQWDFGNTMCQLLTG [CCR5 segment 89-]
- Counts per 20′ Average-background (background subtracted): 494 counts per 20′

Sequence: YAFVGEKFRNYLLVFFQK [CCR5 segment 297-]
- Counts per 20′ Average-background (background subtracted): 596 counts per 20′

Sequence: YAGIHEWVFGQVMCKSLL [STRL33 segment 89-106]
- radioactive counts recorded in twenty minutes [9]: 5911.5 counts
- radioactive counts recorded in twenty minutes [10]: 6245.5 counts

Sequence: YAGSGNLTLALEAKTGKLHQE [human CD4 291-311]
- number of radioactive decays (counts) counted [4]: 1830 counts

Sequence: YAMTSFHYTIMVTEAIAY [STRL33 segment 261-278]
- radioactive counts recorded in twenty minutes [9]: 2688.5 counts
- radioactive counts recorded in twenty minutes [10]: 2359.5 counts

Sequence: YDSMKEPCFREENANFNK [CXCR4 segment 21-38]
- radioactive counts recorded in twenty minutes [7]: 53 counts
- radioactive counts recorded in twenty minutes [8]: 465 counts

Sequence: YGFSSFNDSSQEEHQAFL
- Binding Results For Window Length (counts bound-background), 9 (STRL33 amino terminus, 9-mer starting at the first residue of the printed sequence, background subtracted): 345 counts
- Binding Results For Window Length (counts bound-background), 12 (STRL33 amino terminus, 12-mer starting at the first residue of the printed sequence, background subtracted): 745 counts
- Binding Results For Window Length (counts bound-background), 15 (STRL33 amino terminus, 15-mer starting at the first residue of the printed sequence, background subtracted): 645 counts
- Binding Results For Window Length (counts bound-background), 18 (STRL33 amino terminus, 18-mer starting at the first residue of the printed sequence, background subtracted): 1138 counts

Sequence: YGNVFNLDKLICGYHDEA
- radioactive counts recorded in twenty minutes [9]: −41.5 counts
- radioactive counts recorded in twenty minutes [10]: −20.5 counts

From patent US20030068615A1, “Polypeptides that bind HIV gp120 and related nucleic acids, antibodies, compositions, and methods of use” (priority 1999, published 2003)
